Experimental findings from patent publication US9018414B2, “Substituted 3-phenylpropionic acids and the use thereof” (Bayer Intellectual Property GmbH, priority 2009, dated 2015) are described below.

The subject of this experiment is recombinant guanylate cyclase reporter cell line. Kind of experiment: Action at recombinant guanylate cyclase reporter cell line (CHO reporter cell). It counts as cell-based. The following applies: MEC = minimal effective concentration; read-out: sGC-activating activity in the CHO reporter cell in vitro, MEC. The procedure:
The cellular action of the compounds according to the invention is determined at a recombinant guanylate cyclase reporter cell line, as described in F. Wunder et al., Anal. Biochem. 339, 104-112 (2005).
Regarding `C[C@H]([C@H](C(=O)Nc1cc(C2(CC(=O)O)CC(F)(F)C2)ccc1Cl)c1ccc(Cl)cc1)C(F)(F)F` [Example 102], the minimal effective concentration was 0.001 µM.
Under `C[C@H]([C@H](C(=O)Nc1cc(C2(CC(=O)O)CCC2)ccc1Cl)c1ccc(Cl)cc1)C(F)(F)F` [Example 90] stands 0.001 µM; under `CC(Cc1ccc(F)c(NC(=O)C(c2ccc(Cl)cc2)[C@@H](C)C(F)(F)F)c1)C(=O)O` (stereo partly drawn) [Example 37, 3-(3-{[(3R)-2-(4-Chlorophenyl)-4,4,4-trifluoro-3-methylbutanoyl]amino}-4-fluorophenyl)-2-methylpropanoic acid], 0.01 µM.
Turning to `C[C@H]([C@H](C(=O)Nc1cc(C2CC2C(=O)O)ccc1F)c1ccc(Cl)cc1)C(F)(F)F` (single isomer, unassigned) [Example 53], the minimal effective concentration is 0.3 µM.
With `C[C@H]([C@H](C(=O)Nc1cc(CCC(=O)O)ccc1Cl)c1ccc(C(C)(C)C)cc1)C(F)(F)F` [Example 2, (+)-3-(3-{[(2S,3R)-2-(4-tert-butylphenyl)-4,4,4-trifluoro-3-methylbutanoyl]amino}-4-chlorophenyl)-propanoic acid], the minimal effective concentration was determined as 0.0003 µM.
Under `C[C@H](C(C(=O)Nc1cc(C2(CC(=O)O)CCC2)ccc1Cl)c1ccc(Cl)cc1)C(F)(F)F` (stereo partly drawn) [Example 28, [1-(4-Chloro-3-{[(3R)-2-(4-chlorophenyl)-4,4,4-trifluoro-3-methylbutanoyl]amino}-phenyl)cyclobutyl]acetic acid] stands 0.001 µM; under `C[C@H]([C@H](C(=O)Nc1cc(C[C@H](C)C(=O)O)ccc1Cl)c1ccc(C2CC(F)(F)C2)cc1)C(F)(F)F` [Example 100], 0.003 µM; under `CCC[C@@H](CC(=O)O)c1ccc(Cl)c(NC(=O)[C@H](c2ccc(Cl)cc2)[C@@H](C)C(F)(F)F)c1` (single isomer, unassigned) [Example 82], 0.00023 µM.
Under `C[C@H]([C@H](C(=O)Nc1cc(C2(CC(=O)O)CC2)ccc1Cl)c1ccc(Cl)cc1)C(F)(F)F` [Example 96] stands 0.001 µM; under `CCc1ccc([C@@H](C(=O)Nc2cc(C(C)CC(=O)O)ccc2Cl)[C@@H](C)C(F)(F)F)cc1` (stereo partly drawn) [Example 7, 3-(4-chloro-3-{[(2S,3R)-2-(4-ethylphenyl)-4,4,4-tri-fluoro-3-methylbutanoyl]amino}phenyl)butanoic acid], 0.0002 µM; under `C[C@@H](CC(=O)O)c1ccc(Cl)c(NC(=O)C(c2ccc(Cl)cc2)C2CCCC2(F)F)c1` (stereo partly drawn) [Example 10, (3S)-3-(4-chloro-3-{[(4-chlorophenyl)(2,2-difluoro-cyclopentyl)acetyl]amino}phenyl)butanoic acid], 0.0052 µM.
Under `CCC(C)(Cc1ccc(Cl)c(NC(=O)[C@H](c2ccc(Cl)cc2)[C@@H](C)C(F)(F)F)c1)C(=O)O` (single isomer, unassigned; (+)) [Example 71] stands 0.01 µM; under `CC[C@@H](Cc1ccc(Cl)c(NC(=O)[C@H](c2ccc(Cl)cc2)[C@@H](C)C(F)(F)F)c1)C(=O)O` [Example 30, (+)-(2S)-2-(4-Chloro-3-{[(2S,3R)-2-(4-chlorophenyl)-4,4,4-trifluoro-3-methylbutanoyl]amino}-benzyl)butanoic acid], 0.0003 µM.
Regarding `CC(C(=O)O)C(C)c1ccc(F)c(NC(=O)[C@H](c2ccc(Cl)cc2)[C@@H](C)C(F)(F)F)c1` (stereo partly drawn) [Example 50, threo-3-(3-{[(2S,3R)-2-(4-chlorophenyl)-4,4,4-tri-fluoro-3-methylbutanoyl]amino}-4-fluorophenyl)-2-methylbutanoic acid], the minimal effective concentration came to 0.03 µM.
Under `CC(C(C(=O)Nc1cc(C[C@H](C)C(=O)O)ccc1Cl)c1ccc(CC(F)(F)F)cc1)C(F)(F)F` (stereo partly shown) [Example 99] stands 0.01 µM; under `C[C@H]([C@H](C(=O)Nc1cc([C@H](CC(=O)O)C(F)(F)F)ccc1Cl)c1ccc(Cl)cc1)C(F)(F)F` (single isomer, unassigned) [Example 84], 0.001 µM.
